According to US10556860B2, “hTERT modulators and methods of use” (Arizona Board of Regents on Behalf of the University of …, priority 2015, dated 2020):

Key:
[1] = system: i-motif formed from the full-length C-rich strand of hTERT promoter; test: CD melting (Tm), i-motif; assay type: binding, human; conditions: pH 6.6
Protocol: Circular dichroism. Oligomers of WT, G124A, G124/125A, G138/139A and G146A were synthesized and HPSF-purified by MGW Operon, Inc. For CD analysis, oligomers (5 μM) in a buffer containing 10 mM Tris-HCl (pH 7.5) and 140 mM KCl were annealed. For the CD analysis of the complex of oligomers and compounds, oligomers (5 μM) in a buffer containing 10 mM Tris-HCl (pH 7.5) and 5 mM KCl for GTC365 or 1 mM KCl for BRACO-19 were annealed. Oligomers and GTC365 or BRACO-19 were incubated overnight at room temperature. For the full-length of C-rich strand, the oligomer in a buffer of 10 mM Na cacodylate (pH 6.6) was annealed and then incubated with GTC365 overnight. CD analysis was conducted on a Jasco 810 spectropolarimeter (Jasco, Easton, Md.) using a quartz cell with 1 mm of path length, 1 nm of band width, and 1 s of response time for spectra at 20° C. Melting curves for the determination of Tm were obtained by recording ellipticity at 262 nm with increasing temperatures from 25° C. to 95° C. at a rate of 1.6° C./min. Tm of the C-rich strand with GTC365 was obtained from the CD signal at 286 nm within 10-60° C.
In contrast, BRACO-19 increased the Tm of telomeric G-quadruplex by ˜60% compared to that of the hTERT G-quadruplex at 0.5 and 1 equiv. A summary of the comparative Tms of GTC365 and BRACO-19 in hTERT and telomeric DNA is shown below.

G124A 5-12 G-quadruplex = test: CD kinetics, temperature-jump, G124A; assay type: biochemical, human; conditions: 2 equiv
Protocol: FIGS. 10A and 10B are a set of graphs showing (A) comparison of kinetics of initial folding rate of the WT 5-12 G-quadruplex with GTC365 and BRACO-19 by the temperature-jump method. (B) Enhanced initial folding rate of the 5-12 G-quadruplexes carrying different hTERT mutants by GTC365. The time-course CD signal of preheated oligo with compound or DMSO in a buffer containing 10 mM Tris-HCl (pH 7.5) and 5 mM KCl was monitored at 262 nm and 25° C.
For the kinetics analysis using the temperature-jump method, theoligo in a buffer containing 10 mM Tris-HCl (pH 7.5) was heated forl min at 95° C., and then a mixture of KCl and compound was addedand incubated for 1 min. Meanwhile, the CD cuvette was also heatedat 95° C. As soon as the sample in the CD cuvette at the hightemperature was placed in the CD chamber, a time-dependent CDsignal at 262 nm was recorded immediately. The initial folding ratewas determined by one-phase association curve fitting (eq 1) of thekinetics curve using GraphPad Prism 5: Y=Y0+(Plateau−Y0)*(1−e^−kx) (1) where Y is the CD signal at any time point x, Y0 is the Y value whentime (x) is zero, plateau is the Y value at infinite time, and k is the rateconstant.
To evaluate the comparative effects of GTC365 relative to BRACO-19 on the cooperative folding process, we carried out two different experiments. […]

[2] = system: UACC-903, a G124A mutant melanoma cell line; test: Viability of G124A mutant melanoma cells; assay type: cell-based, human; conditions: 72 h
Protocol: FIGS. 13A-13C are a set of graphs showingselective reduction in viability (A) and hTERT expression (B) in melanoma cells carrying hTERT core promotor mutations. NHM-002 (normal human melanocytes) and a G124A mutant cell line were treated with vehicle, 1.25, 2.5, and 5 μM GTC365 for 72 h. Viability was reduced in hTERT mutant melanoma cells by 50% (left). […] (C) Differential response to GTC365 in WT and promoter mutant cell lines.
Next, to assess the selectivity of GTC365 for hTERT-dependent cancer cells relative to normal precursorcells, we compared the effects of a range of […] on viability at 72 h in normal humanmelanocytes (NHM-002) relative to those of UACC-903, aG124A mutant (FIG. 13A). […] To confirm that the reduction in cell viability was aresult of hTERT downregulation, we performed reverse transcription and qPCR to measure the mRNA level of hTERT expression in cells treated with DMSO or 5 μMGTC365. hTERT expression was reduced by 41% in themelanoma cell line after 72 h but was undetectable in normalmelanocytes, even in the absence of GTC365 (FIG. 13B). Finally, tobroadly assess the selectivity of GTC365 for hTERT promotermutant versus WT cells, we conducted a 6-point 72 h MTSproliferation assay to determine EC50s in 14 additional melanoma cell lines with characterized TERT promoter status([…]) (FIG. 13C). […]

MCF7 cells = test: Senescence β-galactosidase assay; assay type: cell-based, human; conditions: 0.5 μM, 5-10 days
Protocol: Senescence β-galactosidase assay. A colorimetric β-galactosidase assay was performed. Briefly, compound-treated MCF7 cells were fixed in 2% formaldehyde and 0.2% glutaraldehyde for 5 min at room temperature. Fixed cells were incubated with staining solution containing 40 mM citric acid (pH 6.0), 5 mM potassium ferrocyanide, 5 mM potassium ferricyanide, 150 mM NaCl, and 2 mM MgCl2 and 1 mg/ml X-gal (Fermentas R0401) for 7 h at 37° C. Stained cells were washed with D-PBS and methanol and subsequently dried in air.
Since senescence is one of the outcomes resulting from loss of telomere length, this was measured by the associated overexpression of lysosomal β-galactosidase, which releases indigo (blue dye) from X-gal. In addition, the cell morphology will also be dramatically changed so that cells appear to be flat and enlarged. […] Abnormal phenotypes such as bridges connecting two adjacent cells and multinucleated cells were also observed in GTC365-treated cells. hTERT is known to localize to mitotic spindles and centromeres and regulate the expression of genes involved in heterochromatin maintenance. In addition, there is alteration of expression of some proteins involved in collagen synthesis or tubulin organization by hTERT transfection.

## N=C(N)NCCCS(=O)(=O)Nc1ccc(Nc2c3ccccc3nc3cc([N+](=O)[O-])ccc23)cc1 [GTC365]
[1]
  change in Tm of the i-motif: little change in Tm
G124A 5-12 G-quadruplex
  increase of initial folding rate: 0.049 s⁻¹
[2]; 5 μM
  viability: below 50%
[2]; hTERT mutant melanoma cells, up to 5 μM
  reduction of viability: 50%
MCF7 cells
  senescence-like phenotype (β-galactosidase staining, morphology): distinct senescence-like phenotype (SLP)
